Where two headings read alike, the source gives them in different places.
Tested on: Peripheral Neuropathy in a Mouse Caused by Vincristine
Type: in vivo, Balb/c mice
From the text: (§1) Six to seven-week-old female Balb/c mice were used for the tests. All the mice were acclimated for seven days after arrival. Then, the mice were grouped into the following four groups: a control group, a group receiving vincristine, a group receiving xylitol, and a group receiving vincristine and xylitol (a group receiving vincristine+xylitol). Each group consisted of five mice.
(§2) On Day 8 of acclimation, the mice in the group receiving vincristine and the group receiving vincristine+xylitol were intraperitoneally administered with vincristine at a dose of 0.2 mg/kg. This day was designated as Day 0 of administration. Thereafter, these mice were intraperitoneally administered with vincristine at a daily dose of 0.2 mg/kg on Day 7 and Day 14.
The mice in the group receiving xylitol and the group receiving vincristine+xylitol were orally administered with xylitol at a dose of 5 mg/kg daily from Day 0.
(§3) A cold plate test was performed to examine the effect of xylitol on paresthesia that is caused by a low temperature stimulus. The mice in the four groups described in (7) of the present example (Example 1) were placed on a cold plate set at 10° C., and withdrawal response time (latent time) was measured. It is presumed that a shorter latent time reflects a greater degree of shunning the low temperature stimulus by the cold plate.
as §1, with “tests as with Example 1.” for “tests.”
On Day 8 of acclimation, the mice in the group receiving vincristine and the group receiving vincristine+xylitol were intraperitoneally administered with vincristine at a dose of 0.2 mg/kg. This day was designated as the first day of the administration (Day 0). Thereafter, these mice were intraperitoneally administered with vincristine at the same dose on Day 7 and Day 14 for a total of 3 doses.
The mice in the group receiving 100 mg/kg xylitol were orally administered with xylitol at a dose of 100 mg/kg daily from Day 0. The mice in the group receiving vincristine+100 mg/kg xylitol were orally administered with xylitol at a dose of 100 mg/kg daily from Day 6 of administration.
as §3, with “A” for “A cold plate”, “performed on the mice in the four groups described in (9) of the present example (Example 2)” for “performed”, “respective” for “the four”, “groups” for “groups described in (7) of the present example (Example 1)”
as §1, with “tests as with Example 1.” for “tests.”, “D-threitol,” for “xylitol,”, “D-threitol” for “xylitol”, “vincristine+D-threitol).” for “vincristine+xylitol).”
as §2, with “vincristine+D-threitol” for “vincristine+xylitol”
The mice in the group receiving D-threitol and the group receiving vincristine+D-threitol were orally administered with D-threitol at a dose of 5 mg/kg daily from Day 0.
A cold plate test was performed to examine the effect of D-threitol on paresthesia that is caused by a low temperature stimulus. […]

[1] = 0.2 mg/kg vincristine + 5 mg/kg test substance orally daily from Day 0 (prevention)
[2] = 0.2 mg/kg vincristine + 100 mg/kg orally daily from Day 6, on Day 12, vs group receiving 0.2 mg/kg vincristine

SMILES	withdrawal response time (latent time) [1]	withdrawal response time (latent time) (0.2 mg/kg vincristine + 100 mg/kg orally daily from Day 6 (therapy), time course after Day 6)	withdrawal response time (latent time) [2]
OC[C@@H](O)[C@H](O)CO [D-threitol]	approximately similar to that of the control group	significantly longer withdrawal response time	significantly longer withdrawal response time
OC[C@H](O)[C@H](O)[C@H](O)[C@@H](O)CO [L-talitol]	approximately similar to that of the control group	–	significantly longer withdrawal response time
OC[C@@H](O)[C@H](O)[C@@H](O)CO [xylitol]	approximately similar to that of the control group	–	significantly longer withdrawal response time
